By IC50 is commonly meant the concentration needed to halve the response being measured. Read a low IC50 as greater potency in that assay.

HIS-TGFβR1 T204D, sequence (P36897 34-503 T204D): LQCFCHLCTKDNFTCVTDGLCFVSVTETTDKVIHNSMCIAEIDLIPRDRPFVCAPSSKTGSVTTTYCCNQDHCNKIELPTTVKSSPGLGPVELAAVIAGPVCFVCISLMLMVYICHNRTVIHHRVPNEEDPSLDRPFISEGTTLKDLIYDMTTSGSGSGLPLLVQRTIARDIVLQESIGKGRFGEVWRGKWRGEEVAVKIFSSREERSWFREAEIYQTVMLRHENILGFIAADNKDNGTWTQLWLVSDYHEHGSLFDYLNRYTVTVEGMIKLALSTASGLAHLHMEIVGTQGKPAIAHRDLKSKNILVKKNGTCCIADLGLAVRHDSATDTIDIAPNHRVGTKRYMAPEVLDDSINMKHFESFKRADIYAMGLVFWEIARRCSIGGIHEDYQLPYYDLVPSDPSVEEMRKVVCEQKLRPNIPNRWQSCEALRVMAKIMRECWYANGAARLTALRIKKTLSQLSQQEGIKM

The experiment concerns the target HIS-TGFβR1 T204D (Homo sapiens (Human), UniProt P36897, T204D). The experiment is described as follows: HTRF probe-displacement assay, HIS-TGFβR1 T204D. Format: binding. The settings on record: 1 hour at room temperature. Background: TR-FRET usually uses a lanthanide donor and a delayed reading to cut background.
For `CN1CCC(CCNCc2ccn3nc(-c4ccccn4)nc(Nc4ccncc4F)c23)CC1` [Example 303, 3-fluoro-N-[5-({[2-(1-methylpiperidin-4-yl)ethyl]amino}methyl)-2-(pyridin-2-yl)pyrrolo[2,1-f][1,2,4]triazin-4-yl]pyridin-4-amine], the IC50 was 5.4 nM.

The compound `O=C(CCC(F)(F)F)Nc1cc(Nc2nc(-c3cccc(C(F)(F)F)n3)nn3cccc23)ccn1` [Example 337, 4,4,4-trifluoro-N-[4-({2-[6-(trifluoromethyl)pyridin-2-yl]pyrrolo[2,1-f][1,2,4]triazin-4-yl}amino)pyridin-2-yl]butanamide] returned a concentration for half-maximal inhibition (IC50) of 3.3 nM. In turn, `O=c1[nH]c2ccccc2n1C1CCN(Cc2ccn3nc(-c4ccccn4)nc(Nc4ccncc4F)c23)CC1` [Example 278, 1-[1-({4-[(3-fluoropyridin-4-yl)amino]-2-(pyridin-2-yl)pyrrolo[2,1-f][1,2,4]triazin-5-yl}methyl)piperidin-4-yl]-2,3-dihydro-1H-1,3-benzodiazol-2-one] gave a concentration for half-maximal inhibition (IC50) of 1.8 nM. Compound `Fc1cnccc1Nc1nc(-c2ccccn2)nn2ccc(CNCCCn3ccnc3)c12` [Example 281, 3-fluoro-N-[5-({[3-(1H-imidazol-1-yl)propyl]amino}methyl)-2-(pyridin-2-yl)pyrrolo[2,1-f][1,2,4]triazin-4-yl]pyridin-4-amine] came in with an IC50 of 1.6 nM. `O=C(NCCCN1CCCC1)c1cnccc1Nc1nc(-c2cccc(C(F)(F)F)n2)nn2cccc12` [Example 37] displayed a 50% inhibitory concentration (IC50) of 47 nM. Compound `O=C(CCN1CCC(O)CC1)Nc1cc(Nc2nc(-c3cccc(C(F)(F)F)n3)nn3cccc23)ccn1` [Example 340, 3-(4-hydroxypiperidin-1-yl)-N-[4-({2-[6-(trifluoromethyl)pyridin-2-yl]pyrrolo[2,1-f][1,2,4]triazin-4-yl}amino)pyridin-2-yl]propanamide] displayed an IC50 of 1.2 nM.

As for `C[C@@H](NCc1ccn2nc(-c3ccccn3)nc(Nc3ccncc3F)c12)C(C)(C)C` [Example 300, N-[5-({[(2R)-3,3-dimethylbutan-2-yl]amino}methyl)-2-(pyridin-2-yl)pyrrolo[2,1-f][1,2,4]triazin-4-yl]-3-fluoropyridin-4-amine], the IC50 worked out at 3.3 nM.

The compound `Cc1cccc(-c2nc(Nc3ccncc3F)c3c(CN4CC[C@H](O)C4)ccn3n2)n1` [Example 252, (3S)-1-({4-[(3-fluoropyridin-4-yl)amino]-2-(6-methylpyridin-2-yl)pyrrolo[2,1-f][1,2,4]triazin-5-yl}methyl)pyrrolidin-3-ol] had an IC50 of 0.49 nM. Take `CC(C)(C)OC(=O)CNC(=O)c1cnccc1Nc1nc(-c2cccc(C(F)F)n2)nn2cccc12` [Example 196, tert-butyl 2-{[4-({2-[6-(difluoromethyl)pyridin-2-yl]pyrrolo[2,1-f][1,2,4]triazin-4-yl}amino)pyridin-3-yl]formamido}acetate]: the IC50 came to 230 nM.

Compound `Cc1cccc(-c2nc(Nc3ccncc3Cl)c3cccn3n2)n1` [Example 59, 3-chloro-N-[2-(6-methylpyridin-2-yl)pyrrolo[2,1-f][1,2,4]triazin-4-yl]pyridin-4-amine] had an IC50 of 1.6 nM. Compound `Cc1cncc(-c2nc(Nc3ccncc3Cl)c3cccn3n2)n1` [Example 6, 3-chloro-N-[2-(6-methylpyrazin-2-yl)pyrrolo[2,1-f][1,2,4]triazin-4-yl]pyridin-4-amine] had an IC50 of 68 nM. To `FC(F)(F)c1cccc(-c2nc(Nc3ccncn3)c3cccn3n2)n1` [Example 255, N-{2-[6-(trifluoromethyl)pyridin-2-yl]pyrrolo[2,1-f][1,2,4]triazin-4-yl}pyrimidin-4-amine] belongs 28 nM; to `OC1CCN(Cc2ccn3nc(-c4ccccn4)nc(Nc4ccncc4F)c23)CC1` [Example 243, 1-({4-[(3-fluoropyridin-4-yl)amino]-2-(pyridin-2-yl)pyrrolo[2,1-f][1,2,4]triazin-5-yl}methyl)piperidin-4-ol], 0.58 nM.

`FC(F)(F)c1cccc(-c2nc(Nc3ccnc(-c4cc[nH]n4)c3)c3cccn3n2)n1` [Example 230, 2-(1H-pyrazol-3-yl)-N-{2-[6-(trifluoromethyl)pyridin-2-yl]pyrrolo[2,1-f][1,2,4]triazin-4-yl}pyridin-4-amine] gave an IC50 of 100 nM. For the compound `Fc1cnccc1Nc1nc(-c2ccccn2)nn2ccc(CNCC3CCCO3)c12` (stereo not drawn) [Example 247, 3-fluoro-N-(5-{[(oxolan-2-ylmethyl)amino]methyl}-2-(pyridin-2-yl)pyrrolo[2,1-f][1,2,4]triazin-4-yl)pyridin-4-amine], the half-maximal inhibitory concentration (IC50) was 1 nM.

Consider `COc1cccc(-c2nc(Nc3ccncc3F)c3c(CNCCN4CCCC4)ccn3n2)n1` [Example 119, 3-fluoro-N-[2-(6-methoxypyridin-2-yl)-5-({[2-(pyrrolidin-1-yl)ethyl]amino}methyl)pyrrolo[2,1-f][1,2,4]triazin-4-yl]pyridin-4-amine], for which the half-inhibitory concentration (IC50) is 63 nM. For `Fc1cccc(-c2nc(Nc3ccncc3F)c3cccn3n2)n1` [Example 14, 3-fluoro-N-[2-(6-fluoropyridin-2-yl)pyrrolo[2,1-f][1,2,4]triazin-4-yl]pyridin-4-amine], the IC50 is 0.79 nM. As to `Cc1cccc(-c2nc(Nc3ccncc3)c3cc(C(=O)NCCCN4CCCC4)cn3n2)n1` [Example 50, 2-(6-methylpyridin-2-yl)-4-[(pyridin-4-yl)amino]-N-[3-(pyrrolidin-1-yl)propyl]pyrrolo[2,1-f][1,2,4]triazine-6-carboxamide], the IC50 was 76 nM. As for `COc1cccc(-c2nc(Nc3ccncc3F)c3c(CNCC(C)(C)O)ccn3n2)n1` [Example 118, 1-[({4-[(3-fluoropyridin-4-yl)amino]-2-(6-methoxypyridin-2-yl)pyrrolo[2,1-f][1,2,4]triazin-5-yl}methyl)amino]-2-methylpropan-2-ol], the half-inhibitory concentration (IC50) is 9.7 nM. To `Fc1cnccc1Nc1nc(-c2cccc(C(F)F)n2)nn2ccc(CN3CCC(F)(F)CC3)c12` [Example 23, N-{2-[6-(difluoromethyl)pyridin-2-yl]-5-[(4,4-difluoropiperidin-1-yl)methyl]pyrrolo[2,1-f][1,2,4]triazin-4-yl}-3-fluoropyridin-4-amine] belongs 1.1 nM; to `Fc1cnccc1Nc1nc(-c2ccccn2)nn2ccc(CNCCN3CCNCC3)c12` [Example 269, 3-fluoro-N-[5-({[2-(piperazin-1-yl)ethyl]amino}methyl)-2-(pyridin-2-yl)pyrrolo[2,1-f][1,2,4]triazin-4-yl]pyridin-4-amine], 4.2 nM. The compound `COc1cccc(-c2nc(Nc3ccncc3F)c3cc(CCCCN4CCN(C)CC4)cn3n2)n1` [Example 43, 3-fluoro-N-[2-(6-methoxypyridin-2-yl)-6-[4-(4-methylpiperazin-1-yl)butyl]pyrrolo[2,1-f][1,2,4]triazin-4-yl]pyridin-4-amine] had an IC50 of 2200 nM. `CC(=O)Nc1cc(Nc2nc(-c3ccccn3)nn3ccc(CN4CCOCC4)c23)ccn1` [Example 293, N-(4-{[5-(morpholin-4-ylmethyl)-2-(pyridin-2-yl)pyrrolo[2,1-f][1,2,4]triazin-4-yl]amino}pyridin-2-yl)acetamide] showed a concentration for half-maximal inhibition (IC50) of 0.25 nM.

The compound `Fc1cnccc1Nc1nc(-c2ccnc(C(F)(F)F)n2)nn2cccc12` [Example 100, 3-fluoro-N-{2-[2-(trifluoromethyl)pyrimidin-4-yl]pyrrolo[2,1-f][1,2,4]triazin-4-yl}pyridin-4-amine] showed an IC50 of 15 nM. Consider `O=C(c1cnccc1Nc1nc(-c2cccc(C(F)F)n2)nn2cccc12)N1CCC(O)(c2ccccc2)CC1` [Example 185, 1-[4-({2-[6-(difluoromethyl)pyridin-2-yl]pyrrolo[2,1-f][1,2,4]triazin-4-yl}amino)pyridine-3-carbonyl]-4-phenylpiperidin-4-ol], for which the half-maximal inhibitory concentration (IC50) is 1200 nM. The compound `Fc1cnccc1Nc1nc(-c2cccc(C(F)(F)F)n2)nn2cccc12` [Example 84, 3-fluoro-N-{2-[6-(trifluoromethyl)pyridin-2-yl]pyrrolo[2,1-f][1,2,4]triazin-4-yl}pyridin-4-amine] had an IC50 of 3.7 nM. Consider `Fc1cnccc1Nc1nc(-c2ccc(C(F)(F)F)cn2)nn2cccc12` [Example 248, 3-fluoro-N-{2-[5-(trifluoromethyl)pyridin-2-yl]pyrrolo[2,1-f][1,2,4]triazin-4-yl}pyridin-4-amine], for which the half-inhibitory concentration (IC50) stood at 70 nM. In the case of `COc1cccc(-c2nc(Nc3ccncc3Cl)c3cccn3n2)n1` [Example 60, 3-chloro-N-[2-(6-methoxypyridin-2-yl)pyrrolo[2,1-f][1,2,4]triazin-4-yl]pyridin-4-amine] it was 5.4 nM; in that of `CC(C)(O)CCNC(=O)c1cnccc1Nc1nc(-c2cccc(C(F)F)n2)nn2cccc12` [Example 187, 4-({2-[6-(difluoromethyl)pyridin-2-yl]pyrrolo[2,1-f][1,2,4]triazin-4-yl}amino)-N-(3-hydroxy-3-methylbutyl)pyridine-3-carboxamide], 21 nM; in that of `CC1(NCc2ccn3nc(-c4ccccn4)nc(Nc4ccncc4F)c23)CCOCC1` [Example 242, 3-fluoro-N-(5-{[(4-methyloxan-4-yl)amino]methyl}-2-(pyridin-2-yl)pyrrolo[2,1-f][1,2,4]triazin-4-yl)pyridin-4-amine], less than 0.76 nM. The compound `COc1cccc(-c2nc(Nc3ccnc(NC(C)=O)c3)c3cccn3n2)n1` [Example 97, N-(4-{[2-(6-methoxypyridin-2-yl)pyrrolo[2,1-f][1,2,4]triazin-4-yl]amino}pyridin-2-yl)acetamide] registered a half-inhibitory concentration (IC50) of 2.9 nM.

In turn, `COc1cccc(-c2nc(Nc3ccnc(N4CCOCC4)c3)c3cccn3n2)n1` [Example 99, N-[2-(6-methoxypyridin-2-yl)pyrrolo[2,1-f][1,2,4]triazin-4-yl]-2-(morpholin-4-yl)pyridin-4-amine] displayed a 50% inhibitory concentration (IC50) of 2900 nM. In turn, `N#Cc1cc(Nc2nc(-c3cccc(C(F)(F)F)n3)nn3cccc23)ccn1` [Example 292, 4-({2-[6-(trifluoromethyl)pyridin-2-yl]pyrrolo[2,1-f][1,2,4]triazin-4-yl}amino)pyridine-2-carbonitrile] returned an IC50 of 360 nM.

These data come from patent US10336761B2, “TGFβ receptor antagonist” (BRISTOL-MYERS SQUIBB COMPANY, priority 2015, dated 2019).
